Data as given in patent US20080119548A1, “Control Of Feeding Behavior By Changing Neuronal Energy Balance” (priority 2004, published 2008).

How the values were obtained:
[1] = tested on: primary cortical neurons; assay: ATP, AMP/ATP ratio and AMPK activity in primary cortical neurons; assay type: cell-based, Sprague-Dawley rats; conditions: C75 treatment
Method: Cortices were removed from E17 Sprague-Dawley rats (Harlan, Indianapolis, Ind.), and were dissociated by mild trypsinization and trituration as described by Dawson, et al. J Neurosci 13, 2651-2661 (1993). Cells were plated on poly-D-lysine coated plastic Nunclon culture dishes at a density of 5×10^5 cells/cm^2 in Minimum Essential Media (MEM) supplemented with horse serum, fetal bovine serum, glutamine, and the antibiotics gentamycin and kanamycin. […]
Neurons were lysed on ice using TE buffer (100 mM Tris and 4 mM EDTA) and removed from the plate. ATP levels were then measured in the linear range using the ATP Bioluminescence Kit CLS II (Roche, Indianapolis, Ind.) by following the manufacturer's protocol, and results were read by a Perkin-Elmer Victor^2 1420.
Adenine nucleotide levels in primary cortical neuron lysates were determined by HPLC analysis as described by Stocchi, et al. Anal Biochem 167, 181-190 (1987). […]
AMPK activity was determined by performing SAMS peptide assays as described by Witters, et al., J Biol Chem 267, 2864-2867 (1992). […] Immunoprecipitates were then washed and resuspended in 4× assay buffer and kinase activity was assessed by measurement (for 20 min at 30° C.) of the incorporation of ^32P into the synthetic SAMS peptide substrate, HMRSAMSGLHLVKRR, (Princeton Biomolecules). […]

[2] = tested on: BALB/c male mice; assay: Measurement of food intake after i.c.v. or i.p. injection; assay type: in vivo
Method: Male BALB/c mice (7-9 weeks) were purchased from Charles River Laboratories (and housed in a controlled-light (12 hr light/12 hr dark cycle) environment (lights on 0200-1400 h) and allowed ad libitum access to standard laboratory chow and water. For fasting, food was withdrawn from cage at the onset of the dark cycle for 24 hr, but ad libitum access to water was allowed.
Mice were implanted with permanent stainless steel cannulae into the lateral ventricle of the brain 0.6 mm caudal to Bregma, 1.2 mm lateral to the midline, and sunk to a depth of 2.2 mm below the surface of the skull. Implanted mice were housed in individual cages and utilized for i.c.v. and i.p. injections as indicated. C75 dissolved in RPMI1640 (Gibco-BRL), AICAR (Toronto Research Chemicals Inc) or compound C (46) (FASgen, Inc.) in saline was injected i.c.v., such that desired dose could be administered in a volume of 2.5 μl, while control groups received vehicle only. Injections were done immediately preceding dark onset and food intake measurements were taken at 1 hr (0-1 hr interval), 3 hr (1-3 hr interval), and 24 hr (3-24 hr interval) after dark onset. C75 i.p./AICAR i.c.v. treatment groups were i.p. injected with 5 mg/kg bodyweight C75 dissolved in […] of glucose-free RPMI 1 hr before the dark onset, followed by 3 μg/2.5 μl saline i.c.v. AICAR immediately preceding the dark onset. Control groups received 200 μl of glucose free RPMI 1 hr before lights off and 2.5 μl of saline. Administration of i.p. compound C (10 or 30 mg/kg bodyweight) or C75 (10 mg/kg bodyweight) was followed by food intake measurement at the same times indicated.

[3] = tested on: pCREB; assay: Immunohistochemistry of pCREB in the arcuate nucleus; assay type: in vivo, mice; conditions: C75-treated (24 hr) mice
Method: Free-floating sections were blocked in PBS containing 5% goat serum, 0.1% BSA, 0.05% Triton-X100, 1 mM NaF for 1 hr at room temperature and incubated with anti-phospho-AMPKα (α1 and α2) antibody (1:100) or anti-phospho-CREB antibody (1:500, Cell Signaling) in PBS containing 1% goat serum, 0.1% BSA, 0.05% Triton-X100, 1 mM NaF overnight at 4° C. Signal was visualized by Vectastain ABC kit (Vector). Images of in situ hybridization and immunohistochemistry were visualized using an Axiocam HRc digital camera (Carl Zeiss) and images were acquired using Improvision Openlab software, and quantified by NIH Image program (Macro).

[4] = tested on: lean, diet-induced obese (DIO), and genetically obese (ob/ob) mice; conditions: cited from earlier work

## C=C1C(=O)OC(CCCCCCCC)C1C(=O)O (stereo not drawn) [C75]
[1]
  AMPK activity in primary cortical neurons: inactivation of AMPK
  ratio of AMP/ATP in primary cortical neurons: decrease in the ratio of AMP/ATP
[2]; C75 5 mg i.c.v., p<0.05
  reduction in food intake over 24 hr: 20.3%
[2]; C75 5 mg/kg bodyweight i.p. 1 hr before dark onset, saline i.c.v., p<0.01
  food intake at 1 hr, % of control (RPMI/saline): 37.5 % of control
[2]; C75 10 mg i.c.v., p<0.01
  reduction in food intake over 24 hr: 37.7%
[2]; C75 10 mg/kg bodyweight i.p., 0-1 hr
  food intake, % of control: 8.3 % of control
[2]; C75 10 mg/kg bodyweight i.p., 1-3 hr
  food intake, % of control: 23.3 % of control
[2]; C75 10 mg/kg bodyweight i.p., 3-24 hr
  food intake, % of control: 30.1 % of control
[2]; C75 10 mg/kg bodyweight i.p., total 24 hr, p<0.001
  total 24 hr-food consumption, % of control: 26.3 % of control
[2]; C75 i.c.v., dose-dependent
  food intake during the 1-3 and 3-24 hr time intervals: significantly reduced food intake
[3]
  level of pCREB in the arcuate nucleus, % of control: 39 % of control
[4]
  weight loss and anorexia: profound weight loss and anorexia
